Reference: publication PMC11345841, “Exploring 2-Sulfonylpyrimidine Warheads as Acrylamide Surrogates for Targeted Covalent Inhibition: A BTK Story” (Journal of Medicinal Chemistry, 2024)
Where two headings read alike, the source gives them in different places.

Legend:
TMD8 cells = assay: RNA-seq gene expression; conditions: for Expr Log Ratio: 8d versus Ibrutinib
[1] = target: T1, ABL1(T315I)-phosphorylated (Homo sapiens, UniProt P00519, T315I); assay: KINOMEscan ScanTK; assay type: binding
T1 construct: purchased Eurofins DiscoverX KINOMEscan (scanTK)

FRK = target: T2, FRK (Homo sapiens, UniProt P42685); assay: KINOMEscan ScanTK; assay type: binding
T2 construct: purchased Eurofins DiscoverX KINOMEscan (scanTK)
T2 sequence (P42685 whole entry): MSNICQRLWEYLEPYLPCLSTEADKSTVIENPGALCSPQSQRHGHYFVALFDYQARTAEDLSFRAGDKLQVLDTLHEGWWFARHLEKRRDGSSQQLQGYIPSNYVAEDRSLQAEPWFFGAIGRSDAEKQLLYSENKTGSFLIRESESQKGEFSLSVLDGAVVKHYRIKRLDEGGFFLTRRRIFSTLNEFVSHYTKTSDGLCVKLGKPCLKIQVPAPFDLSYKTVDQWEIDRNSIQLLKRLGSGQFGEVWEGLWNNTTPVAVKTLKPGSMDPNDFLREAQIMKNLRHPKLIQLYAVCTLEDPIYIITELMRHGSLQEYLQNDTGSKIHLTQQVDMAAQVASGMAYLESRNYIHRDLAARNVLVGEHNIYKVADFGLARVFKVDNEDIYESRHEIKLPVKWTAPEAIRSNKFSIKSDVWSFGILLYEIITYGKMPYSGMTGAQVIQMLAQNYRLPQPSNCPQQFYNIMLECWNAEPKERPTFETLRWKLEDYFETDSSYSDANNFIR

FYN = target: T3, FYN (Homo sapiens, UniProt P06241); assay: KINOMEscan ScanTK; assay type: binding
T3 construct: purchased Eurofins DiscoverX KINOMEscan (scanTK)
T3 sequence (P06241 whole entry): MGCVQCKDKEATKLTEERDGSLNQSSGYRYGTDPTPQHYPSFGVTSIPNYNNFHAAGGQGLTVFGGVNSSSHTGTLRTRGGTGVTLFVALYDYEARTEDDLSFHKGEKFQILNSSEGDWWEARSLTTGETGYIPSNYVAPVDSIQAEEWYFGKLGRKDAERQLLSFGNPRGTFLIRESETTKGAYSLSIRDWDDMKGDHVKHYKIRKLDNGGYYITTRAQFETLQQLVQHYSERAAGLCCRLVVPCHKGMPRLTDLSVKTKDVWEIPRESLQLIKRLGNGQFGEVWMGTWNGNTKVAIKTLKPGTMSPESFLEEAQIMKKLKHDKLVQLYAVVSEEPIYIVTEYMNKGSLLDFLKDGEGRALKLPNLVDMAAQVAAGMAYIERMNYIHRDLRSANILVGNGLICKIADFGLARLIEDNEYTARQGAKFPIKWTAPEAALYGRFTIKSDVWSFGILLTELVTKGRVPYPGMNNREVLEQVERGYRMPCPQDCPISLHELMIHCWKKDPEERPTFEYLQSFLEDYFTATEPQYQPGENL

KIT(A829P) = target: T4, KIT(A829P) (Homo sapiens, UniProt P10721, A829P); assay: KINOMEscan ScanTK; assay type: binding
T4 construct: purchased Eurofins DiscoverX KINOMEscan (scanTK)
T4 sequence (P10721 26-976 A829P): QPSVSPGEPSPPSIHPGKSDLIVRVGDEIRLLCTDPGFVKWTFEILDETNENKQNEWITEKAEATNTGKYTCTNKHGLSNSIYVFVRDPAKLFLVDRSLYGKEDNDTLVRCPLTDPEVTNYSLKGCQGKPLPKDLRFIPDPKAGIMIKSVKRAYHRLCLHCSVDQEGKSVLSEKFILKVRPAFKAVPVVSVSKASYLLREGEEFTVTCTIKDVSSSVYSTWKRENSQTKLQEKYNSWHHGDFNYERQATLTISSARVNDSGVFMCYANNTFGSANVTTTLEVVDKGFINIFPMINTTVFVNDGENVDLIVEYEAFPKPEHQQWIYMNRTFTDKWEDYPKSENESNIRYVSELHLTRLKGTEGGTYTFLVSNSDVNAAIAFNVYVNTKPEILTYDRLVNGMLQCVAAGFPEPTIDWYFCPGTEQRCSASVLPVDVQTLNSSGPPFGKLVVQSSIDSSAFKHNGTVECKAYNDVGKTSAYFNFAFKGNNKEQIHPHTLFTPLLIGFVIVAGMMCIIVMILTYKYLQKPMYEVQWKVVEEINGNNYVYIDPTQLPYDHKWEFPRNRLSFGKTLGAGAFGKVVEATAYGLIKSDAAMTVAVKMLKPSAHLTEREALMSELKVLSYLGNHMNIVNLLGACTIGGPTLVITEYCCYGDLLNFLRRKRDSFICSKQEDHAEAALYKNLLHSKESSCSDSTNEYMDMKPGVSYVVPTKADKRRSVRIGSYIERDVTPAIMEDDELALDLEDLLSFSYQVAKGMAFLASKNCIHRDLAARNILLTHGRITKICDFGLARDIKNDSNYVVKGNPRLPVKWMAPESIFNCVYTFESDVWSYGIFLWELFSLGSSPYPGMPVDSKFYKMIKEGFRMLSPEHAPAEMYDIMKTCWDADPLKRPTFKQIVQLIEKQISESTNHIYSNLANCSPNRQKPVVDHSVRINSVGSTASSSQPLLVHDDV

ERBB3 = target: T5, ERBB3 (Homo sapiens, UniProt P21860); assay: KINOMEscan ScanTK; assay type: binding; conditions: ERBB3
T5 construct: purchased Eurofins DiscoverX KINOMEscan (scanTK)
T5 sequence (P21860 20-1342): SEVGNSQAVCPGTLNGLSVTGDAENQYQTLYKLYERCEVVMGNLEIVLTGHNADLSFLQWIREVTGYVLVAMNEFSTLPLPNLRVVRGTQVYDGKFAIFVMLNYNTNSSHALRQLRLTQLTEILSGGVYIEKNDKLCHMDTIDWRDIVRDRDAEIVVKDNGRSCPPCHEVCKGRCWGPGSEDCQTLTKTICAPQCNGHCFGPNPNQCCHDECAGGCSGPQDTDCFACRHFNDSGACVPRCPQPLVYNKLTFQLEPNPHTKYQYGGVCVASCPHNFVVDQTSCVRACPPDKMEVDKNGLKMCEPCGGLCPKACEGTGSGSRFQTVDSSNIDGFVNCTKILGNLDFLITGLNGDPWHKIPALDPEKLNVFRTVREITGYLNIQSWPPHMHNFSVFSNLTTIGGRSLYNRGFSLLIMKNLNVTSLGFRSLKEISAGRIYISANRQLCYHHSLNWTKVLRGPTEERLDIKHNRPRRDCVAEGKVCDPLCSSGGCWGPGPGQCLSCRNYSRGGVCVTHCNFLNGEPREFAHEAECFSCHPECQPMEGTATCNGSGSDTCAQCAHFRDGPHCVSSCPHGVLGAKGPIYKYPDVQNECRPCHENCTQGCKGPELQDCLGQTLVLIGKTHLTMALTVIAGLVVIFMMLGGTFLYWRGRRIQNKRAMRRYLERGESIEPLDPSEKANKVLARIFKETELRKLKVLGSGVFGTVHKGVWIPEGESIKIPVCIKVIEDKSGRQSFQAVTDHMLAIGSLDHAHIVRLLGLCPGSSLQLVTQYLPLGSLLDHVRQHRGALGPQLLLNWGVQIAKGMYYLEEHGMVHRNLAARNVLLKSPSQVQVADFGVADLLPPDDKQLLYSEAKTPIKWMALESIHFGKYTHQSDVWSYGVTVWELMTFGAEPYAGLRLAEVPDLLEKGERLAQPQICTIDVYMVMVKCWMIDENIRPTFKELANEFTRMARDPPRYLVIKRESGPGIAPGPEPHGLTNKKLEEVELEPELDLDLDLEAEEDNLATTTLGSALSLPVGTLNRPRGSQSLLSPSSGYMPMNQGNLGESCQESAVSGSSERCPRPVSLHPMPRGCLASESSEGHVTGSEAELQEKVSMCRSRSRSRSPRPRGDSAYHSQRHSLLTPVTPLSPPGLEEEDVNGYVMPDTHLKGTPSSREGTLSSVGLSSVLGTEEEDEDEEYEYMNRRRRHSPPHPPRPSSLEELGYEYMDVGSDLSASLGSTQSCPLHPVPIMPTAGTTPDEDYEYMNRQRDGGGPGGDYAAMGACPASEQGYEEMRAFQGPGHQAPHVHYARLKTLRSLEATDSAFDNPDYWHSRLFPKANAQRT

wild-type BTK = wild-type BTK (Homo sapiens, UniProt Q06187); assay: NanoBRET target engagement assay in HEK293 cells; conditions: HEK293 cells, 1 h treatment
wild-type BTK, sequence (Q06187 whole entry): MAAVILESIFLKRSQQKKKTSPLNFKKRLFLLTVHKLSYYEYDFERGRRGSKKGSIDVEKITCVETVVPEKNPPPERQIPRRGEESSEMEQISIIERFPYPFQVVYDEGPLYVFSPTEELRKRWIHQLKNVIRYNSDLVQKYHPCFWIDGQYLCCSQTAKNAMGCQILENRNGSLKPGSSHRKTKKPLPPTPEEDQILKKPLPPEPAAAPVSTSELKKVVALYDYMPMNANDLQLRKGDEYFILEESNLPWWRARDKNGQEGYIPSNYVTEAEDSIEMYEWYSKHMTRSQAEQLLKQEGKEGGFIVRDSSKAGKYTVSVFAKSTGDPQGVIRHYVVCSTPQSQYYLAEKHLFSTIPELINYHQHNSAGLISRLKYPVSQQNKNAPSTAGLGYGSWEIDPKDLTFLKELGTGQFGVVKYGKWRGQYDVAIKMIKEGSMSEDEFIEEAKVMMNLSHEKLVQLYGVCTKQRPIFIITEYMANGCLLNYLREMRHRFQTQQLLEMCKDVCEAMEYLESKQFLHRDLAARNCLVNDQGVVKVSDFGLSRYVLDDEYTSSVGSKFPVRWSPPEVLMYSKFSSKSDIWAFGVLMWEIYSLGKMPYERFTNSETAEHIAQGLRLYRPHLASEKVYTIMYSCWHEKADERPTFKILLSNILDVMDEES

AXL = target: T6, AXL (Homo sapiens, UniProt P30530); assay: KINOMEscan ScanTK; assay type: binding
T6 construct: purchased Eurofins DiscoverX KINOMEscan (scanTK)
T6 sequence (P30530 26-894): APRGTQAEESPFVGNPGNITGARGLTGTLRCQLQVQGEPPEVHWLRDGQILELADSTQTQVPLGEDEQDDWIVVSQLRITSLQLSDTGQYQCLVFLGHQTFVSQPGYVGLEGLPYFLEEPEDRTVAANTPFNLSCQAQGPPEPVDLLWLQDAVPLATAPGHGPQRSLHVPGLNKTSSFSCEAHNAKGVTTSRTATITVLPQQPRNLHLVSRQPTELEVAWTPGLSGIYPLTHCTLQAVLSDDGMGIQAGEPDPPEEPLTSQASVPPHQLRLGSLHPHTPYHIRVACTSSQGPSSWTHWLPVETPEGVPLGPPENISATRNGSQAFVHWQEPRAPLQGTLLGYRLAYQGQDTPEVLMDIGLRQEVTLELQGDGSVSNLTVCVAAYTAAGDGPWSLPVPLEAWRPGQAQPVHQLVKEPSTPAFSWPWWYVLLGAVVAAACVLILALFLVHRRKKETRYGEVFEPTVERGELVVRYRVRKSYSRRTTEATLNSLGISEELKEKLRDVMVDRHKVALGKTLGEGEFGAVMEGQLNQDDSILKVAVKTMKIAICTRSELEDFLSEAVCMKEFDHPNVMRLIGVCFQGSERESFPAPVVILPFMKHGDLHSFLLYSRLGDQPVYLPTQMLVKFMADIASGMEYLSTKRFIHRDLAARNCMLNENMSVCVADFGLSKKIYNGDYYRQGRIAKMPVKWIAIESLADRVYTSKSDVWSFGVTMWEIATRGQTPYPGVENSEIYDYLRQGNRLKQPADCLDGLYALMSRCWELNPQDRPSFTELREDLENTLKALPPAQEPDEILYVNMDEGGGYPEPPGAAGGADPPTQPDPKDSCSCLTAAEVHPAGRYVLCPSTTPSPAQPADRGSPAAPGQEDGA

BLK = target: T7, BLK (Homo sapiens, UniProt P51451); assay: KINOMEscan ScanTK; assay type: binding; conditions: BLK
T7 construct: purchased Eurofins DiscoverX KINOMEscan (scanTK)
T7 sequence (P51451 whole entry): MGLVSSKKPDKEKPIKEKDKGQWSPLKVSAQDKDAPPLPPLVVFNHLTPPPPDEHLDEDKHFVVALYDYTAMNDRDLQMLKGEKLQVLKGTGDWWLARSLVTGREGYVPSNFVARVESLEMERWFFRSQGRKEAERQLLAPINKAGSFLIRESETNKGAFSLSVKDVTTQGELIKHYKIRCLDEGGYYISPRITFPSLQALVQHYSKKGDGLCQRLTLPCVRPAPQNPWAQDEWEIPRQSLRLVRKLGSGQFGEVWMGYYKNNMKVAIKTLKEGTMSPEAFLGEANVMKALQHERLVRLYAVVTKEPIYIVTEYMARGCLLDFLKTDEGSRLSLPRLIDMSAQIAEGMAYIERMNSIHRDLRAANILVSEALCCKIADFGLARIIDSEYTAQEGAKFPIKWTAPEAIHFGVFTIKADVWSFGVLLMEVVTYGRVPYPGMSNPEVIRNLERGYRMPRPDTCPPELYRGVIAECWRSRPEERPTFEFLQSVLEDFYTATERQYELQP

KIT(V559D,V654A) = target: T8, KIT(V559D,V654A) (Homo sapiens, UniProt P10721, V559D/V654A); assay: KINOMEscan ScanTK; assay type: binding
T8 construct: purchased Eurofins DiscoverX KINOMEscan (scanTK)
T8 sequence (P10721 26-976 V559D/V654A): as the sequence (P10721 26-976 A829P) above, with V534D, V629A, P804A counted along it

Structure (SMILES): CNC(=O)c1cnc(S(C)(=O)=O)nc1N1CCCC(n2nc(-c3ccc(Oc4ccccc4)cc3)c3c(N)ncnc32)C1 (stereo not drawn) [Compound 8d, 4-(3-(4-Amino-3-(4-phenoxyphenyl)-1H-pyrazolo[3,4-d]pyrimidin-1-yl)piperidin-1-yl)-N-methyl-2-(methylsulfonyl)pyrimidine-5-carboxamide]
- Expr Log Ratio (TMD8 cells; MED1): -0.016
- Expr Log Ratio (TMD8 cells; MESP1): -0.242
- Expr Log Ratio (TMD8 cells; MESP2): -0.023
- Expr Log Ratio (TMD8 cells; MFN2): -0.162
- Expr Log Ratio (TMD8 cells; MGAT3): -0.275
- Expr Log Ratio (TMD8 cells; MGAT5): 0.29
- Expr Log Ratio (TMD8 cells; MPZ): -0.137
- Expr Log Ratio (TMD8 cells; MTA3): -0.001
- Expr Log Ratio (TMD8 cells; NCL): -0.053
- Expr Log Ratio (TMD8 cells; NCOA2): 0.045
- Expr Log Ratio (TMD8 cells; NDRG2): 0.057
- Expr Log Ratio (TMD8 cells; NFIA): 0.254
- Expr Log Ratio (TMD8 cells; NFYB): 0.006
- Expr Log Ratio (TMD8 cells; NORAD): -0.057
- Expr Log Ratio (TMD8 cells; NR1H3): 0.155
- Expr Log Ratio (TMD8 cells; OIP5-AS1): 0.071
- Expr Log Ratio (TMD8 cells; PADI2): 0.089
- Expr Log Ratio (TMD8 cells; PCGF2): 0.108
- Expr Log Ratio (TMD8 cells; PDCD4): 0.188
- Expr Log Ratio (TMD8 cells; PIAS3): 0.008
- Expr Log Ratio (TMD8 cells; POR): -0.13
- Expr Log Ratio (TMD8 cells; PPIA): 0.046
- Expr Log Ratio (TMD8 cells; PTAFR): 0.465
- Expr Log Ratio (TMD8 cells; PTP4A3): -0.295
- Expr Log Ratio (TMD8 cells; PTPN2): 0.048
- Expr Log Ratio (TMD8 cells; RALA): -0.18
- Expr Log Ratio (TMD8 cells; REL): -0.144
- Expr Log Ratio (TMD8 cells; RELA): -0.006
- Expr Log Ratio (TMD8 cells; RNASEL): 0.378
- Expr Log Ratio (TMD8 cells; RPA1): 0.039
- Expr Log Ratio (TMD8 cells; RPS6KA5): -0.015
- Expr Log Ratio (TMD8 cells; SCX): 0.154
- Expr Log Ratio (TMD8 cells; SDCBP): 0.02
- Expr Log Ratio (TMD8 cells; SDHB): 0.024
- Expr Log Ratio (TMD8 cells; SP3): -0.093
- Expr Log Ratio (TMD8 cells; SP100): 0.189
- Expr Log Ratio (TMD8 cells; SPINT1): -0.109
- Expr Log Ratio (TMD8 cells; ST6GAL1): -0.01
- Expr Log Ratio (TMD8 cells; STS): 0.181
- Expr Log Ratio (TMD8 cells; TGFBR3): 0.172
- Expr Log Ratio (TMD8 cells; TGS1): 0.171
- expression of AHR target gene CYP1A1 (TMD8 cells; TMD8, 1 μM, 8 h): significantly downregulated
- number of genes unchanged vs DMSO (TMD8 cells; TMD8, 1 μM, 8 h): 14389 genes
- number of genes unchanged vs ibrutinib (TMD8 cells; TMD8, 1 μM, 8 h): 14881 genes
- number of genes reduced vs DMSO (TMD8 cells; TMD8, 1 μM, 8 h, FDR < 0.01, log2FC < -0.5): 274 genes
- number of genes increased vs DMSO (TMD8 cells; TMD8, 1 μM, 8 h, FDR < 0.01, log2FC > 0.5): 384 genes
- number of genes increased vs ibrutinib (TMD8 cells; TMD8, 1 μM, 8 h, p-value <0.01): 105 genes
- number of genes reduced vs ibrutinib (TMD8 cells; TMD8, 1 μM, 8 h, p-value <0.01): 61 genes
- Expr Log Ratio (TMD8 cells; TNF): -0.16
- Expr Log Ratio (TMD8 cells; TNFRSF11A): 0.052
- Expr Log Ratio (TMD8 cells; TP53): -0.035
- Expr Log Ratio (TMD8 cells; YWHAZ): 0.016
- difference in %Control versus compound Ib at 1 µM ([1]; @1000nM): 6%
- remaining binding at 1 µM ([1]; @1000nM, read-out: %Control): 85%
- remaining binding at 1 µM ([1]; read-out: %Control @1000nM): 85%
- difference in %Control versus compound Ib at 1 µM (FRK; @1000nM): 33.7%
- remaining binding at 1 µM (FRK; @1000nM, read-out: %Control): 43%
- remaining binding at 1 µM (FRK; read-out: %Control @1000nM): 43%
- difference in % of control versus compound Ib at 1 µM (FYN; @1000nM): 5.4%
- remaining binding at 1 µM (FYN; @1000nM, read-out: %Control): 15%
- remaining binding at 1 µM (FYN; read-out: %Control @1000nM): 15%
- remaining binding at 1 µM (KIT(A829P); @1000nM, read-out: %Control): 63%
- remaining binding at 1 µM (KIT(A829P); read-out: %Control @1000nM): 63%
- % of control difference from compound Ib at 1 µM (ERBB3; @1000nM): 8.9%
- remaining binding at 1 µM (ERBB3; @1000nM, read-out: %Control): 8.9%
- remaining binding at 1 µM (ERBB3; read-out: %Control @1000nM): 8.9%
- NanoBRET IC50 (wild-type BTK): low to subnanomolar
- difference in %Control versus compound Ib at 1 µM (AXL; @1000nM): 22%
- remaining binding at 1 µM (AXL; @1000nM, read-out: %Control): 97%
- remaining binding at 1 µM (AXL; read-out: %Control @1000nM): 97%
- difference in %Control vs reference Ib at 1 µM (BLK; @1000nM, read-out: % difference (compound - Ib %Control)): -0.05%
- remaining binding at 1 µM (BLK; @1000nM, read-out: %Control): 0%
- remaining binding at 1 µM (BLK; read-out: %Control @1000nM): 0%
- remaining binding at 1 µM (KIT(V559D,V654A); @1000nM, read-out: %Control): 94%
- remaining binding at 1 µM (KIT(V559D,V654A); read-out: %Control @1000nM): 94%
